Reference: patent publication US20250275968A1, “INHIBITORS OF TAU PROTEINS” (DEUTSCHES ZENTRUM FÜR NEURODEGENERATIVE ERKRANKUNGEN E.V., priority 2022, published 2025)
Structures can show the parent of a compound that is named as a salt.

What was measured:
[1] = system: 2N4R tau; experiment: In vitro seeded aggregation/fibrillization assay of 2N4R tau (ThT fluorescence); format: biochemical; details: tau:compound mole ratios 1:3 and 1:10
Description: Aggregation of 2N4R Tau was performed using a previously published co-factor-free aggregation protocol, with a few modifications (Reference: Chakraborty, P. et al. Co-factor-free aggregation of tau into seeding-competent RNA-sequestering amyloid fibrils. Nat. Commun. 12, 4231 (2021)). Aggregation experiments used the Tau protein stock prepared in 25 mM HEPES pH 7.4, 1 mM TCEP. Stocks of compounds were prepared in aggregation buffer (25 mM HEPES, 10 mM KCl, 5 mM MgCl2, pH 7.2) or in DMSO (10 mM compound).
To prepare the Tau fibril seeds by de novo aggregation, 2N4R Tau at a monomer concentration of 25 μM was diluted in aggregation buffer. The working concentration of TCEP in the aggregation mixture was <25 μM after dilution of the stock. To this mixture, Thioflavin T (ThT) was added to a final concentration of 50 μM. A total volume of 100 μL of the Tau-ThT mixture was incubated in a well of a 96-well microplate (Greiner Bio-one), in the presence of two polytetrafluoroethylene beads. The microplate was subjected to a program implemented in a Tecan Spark plate reader that involved incubating at 37° C., with intervals of double orbital shaking and ThT fluorescence emission measurement. The excitation wavelength for ThT was set as 430 nm and the emission wavelength was 485 nm. Details of this plate reader program were published previously (Reference: Chakraborty, P. et al. Co-factor-free aggregation of tau into seeding-competent RNA-sequestering amyloid fibrils. Nat. Commun. 12, 4231 (2021)). […] The fibril-containing mixture collected from the microplate served as a seeding mixture for the subsequent aggregation assays.
Seeded aggregation assays were performed as described above but with 1.0% of the well volume occupied by the seeding mixture sonicated for 1 minute. The assays were performed in the presence and absence of compounds, and working concentrations ranged from 0-250 μM compound.
Analyses of the fluorescence curves were performed using Graphpad PRISM version 8. Fluorescence data were fit to a sigmoid function. The number of hours corresponding to half-maximal ThT Fluorescence™ as well as the span of fluorescence intensity (Span) were determined for each sigmoid curve. Statistically significant differences were determined by one-way ANOVA analysis with Dunnett's multiple comparison test or unpaired t-test.

[2] = target: 2N4R tau^C291S,C322S (Homo sapiens, UniProt P10636, C608S/C639S); experiment: In vitro seeded aggregation assay of cysteine-free tau mutant (ThT fluorescence); format: biochemical; details: mole ratios 1:3 and 1:10
Sequence of 2N4R tau^C291S,C322S (P10636 1-441 isoform P10636-8 C291S/C322S): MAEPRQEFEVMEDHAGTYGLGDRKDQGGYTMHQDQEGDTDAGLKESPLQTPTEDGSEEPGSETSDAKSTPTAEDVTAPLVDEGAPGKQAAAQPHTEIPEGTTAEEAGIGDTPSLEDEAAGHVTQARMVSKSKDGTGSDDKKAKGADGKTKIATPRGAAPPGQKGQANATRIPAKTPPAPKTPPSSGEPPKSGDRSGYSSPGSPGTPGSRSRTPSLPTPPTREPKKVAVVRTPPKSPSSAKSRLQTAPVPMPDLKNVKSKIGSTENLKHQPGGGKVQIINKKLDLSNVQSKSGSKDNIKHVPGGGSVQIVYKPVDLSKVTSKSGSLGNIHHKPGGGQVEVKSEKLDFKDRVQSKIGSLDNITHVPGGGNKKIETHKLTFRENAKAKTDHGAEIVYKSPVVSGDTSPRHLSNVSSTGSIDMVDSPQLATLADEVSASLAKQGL
Description: (§1) Seeded aggregation assays were performed as described above but with 1.0% of the well volume occupied by the seeding mixture sonicated for 1 minute. The assays were performed in the presence and absence of compounds, and working concentrations ranged from 0-250 μM compound. Analyses of the fluorescence curves were performed using Graphpad PRISM version 8. Fluorescence data were fit to a sigmoid function. The number of hours corresponding to half-maximal ThT FluorescenceTM as well as the span of fluorescence intensity (Span) were determined for each sigmoid curve. Statistically significant differences were determined by one-way ANOVA analysis with Dunnett's multiple comparison test or unpaired t-test. The described seeded aggregation protocol was likewise applied to 3R Tau and the […]/[…] mutant of 2N4R Tau.

[3] = target: T1, Full-length 2N4R tau (Homo sapiens, UniProt P10636); experiment: MS/MS analysis of compound adduct in tau; format: binding; details: 1:5 mole ratio tau:compound, overnight at 37° C.
T1 construct: Full-length 2N4R tau was incubated with Osimertinib mesylate
T1 sequence (P10636 1-441 isoform P10636-8): as the sequence (P10636 1-441 isoform P10636-8 C291S/C322S) above, with S291C, S322C counted along it
Description: Compounds (330 μM) were incubated with 2N4R Tau (65 μM) in buffer (25 mM HEPES, 10 mM KCl, 5 mM MgCl2, pH 7.2) for 16 h at 37° C. then stored at 4° C. until in-gel digestion.
In-gel digestion using trypsin (Sigma Aldrich) followed by extraction of peptides for mass spectrometry were performed as described previously (Reference: Shevchenko, A., Tomas, H., Havlis, J., Olsen, J. V., and Mann, M. (2006). In-gel digestion for mass spectrometric characterization of proteins and proteomes. Nature protocols 1, 2856-2860). Extracted peptides were resuspended in 2% acetonitrile and 0.05% TFA and analyzed using a Orbitrap Exploris 480 Mass Spectrometer (Thermo Fisher). The mass spectrometer used an emitter voltage at […] and ion transfer tube temperature at 300° C. Full scans were recorded in the range 350 to 1600 m/z with a mass resolution of 15000. Peptides were fragmented in the collision cell with a 28% energy setting. Tandem mass spectra were acquired using Scan Range Mode “Define First Mass” and isolation window of 1.6 m/z with a mass resolution of 15000.

[4] = system: 3R tau (tau^3R); experiment: In vitro seeded aggregation assay of 3R tau (ThT fluorescence); format: biochemical; details: mole ratios 1:3 and 1:10
Description: as §1

[5] = Solubility in water; format: physicochemical; details: without cosolvents or counterions

C=CC(=O)Nc1cc(Nc2nccc(-c3cn(C)c4ccccc34)n2)c(OC)cc1N(C)CCN(C)C [Osimertinib mesylate, N-[2-(2-Dimethylaminoethylmethylamino)-4-methoxy-5-[[4-(1-methylindol-3-yl)pyrimidin-2-yl]amino]phenyl]prop-2-enamide Mesylate Salt]
inhibition of aggregation of tau^wt and tau^3R compared with cysteine-free tau^C291S,C322S [1]: more effectively inhibits | normalized Span of ThT fluorescence [2]: not observed | normalized Tm (midpoint of aggregation curve) [2]: do not show a clear dose-dependence | tau peptide spectrum matches showing compound-modified cysteine sites [3]: about 350 | covalent modification of C291 and C322 (peptide mass spectra, LC-MS/MS) ([3]; tryptic digestion): confirm covalent modification of cysteines in tau | normalized Span of ThT fluorescence [4]: statistically lower normalized Span values | normalized Tm (midpoint of aggregation curve) [4]: do not show a clear dose-dependence

C=CC(=O)Nc1cc(Nc2nccc(-c3cn(C)c4ccccc34)n2)c(OC)cc1N(C)CCN(C)C [Osimertinib, N-[2-(2-Dimethylaminoethylmethylamino)-4-methoxy-5-[[4-(1-methylindol-3-yl)pyrimidin-2-yl]amino]phenyl]prop-2-enamide]
solubility in water [5]: poor solubility in water
